Measured values reported in PubChem BioAssay AID1645862 (Buhrlage Lab, Dana-Farber Cancer Institute and Novartis …, 2021).
Activity calls are given as the source filed them. The rule behind the calls is not given here.

Biological target: Ubiquitin carboxyl-terminal hydrolase 8 (Homo sapiens) (UniProt P40818)
Assay: Ubiquitin-specific protease 8 inhibitors, concentration-effect, biochemical, validation of initial actives (AID 1645862);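 note: potency reflects inhibition of USP8 cleavage of a ubiquitin rhodamine substrate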
Settings: recombinant USP8 deubiquitinase activity assay

Sequence of Ubiquitin carboxyl-terminal hydrolase 8 (Homo sapiens) (P40818 whole entry, looked up): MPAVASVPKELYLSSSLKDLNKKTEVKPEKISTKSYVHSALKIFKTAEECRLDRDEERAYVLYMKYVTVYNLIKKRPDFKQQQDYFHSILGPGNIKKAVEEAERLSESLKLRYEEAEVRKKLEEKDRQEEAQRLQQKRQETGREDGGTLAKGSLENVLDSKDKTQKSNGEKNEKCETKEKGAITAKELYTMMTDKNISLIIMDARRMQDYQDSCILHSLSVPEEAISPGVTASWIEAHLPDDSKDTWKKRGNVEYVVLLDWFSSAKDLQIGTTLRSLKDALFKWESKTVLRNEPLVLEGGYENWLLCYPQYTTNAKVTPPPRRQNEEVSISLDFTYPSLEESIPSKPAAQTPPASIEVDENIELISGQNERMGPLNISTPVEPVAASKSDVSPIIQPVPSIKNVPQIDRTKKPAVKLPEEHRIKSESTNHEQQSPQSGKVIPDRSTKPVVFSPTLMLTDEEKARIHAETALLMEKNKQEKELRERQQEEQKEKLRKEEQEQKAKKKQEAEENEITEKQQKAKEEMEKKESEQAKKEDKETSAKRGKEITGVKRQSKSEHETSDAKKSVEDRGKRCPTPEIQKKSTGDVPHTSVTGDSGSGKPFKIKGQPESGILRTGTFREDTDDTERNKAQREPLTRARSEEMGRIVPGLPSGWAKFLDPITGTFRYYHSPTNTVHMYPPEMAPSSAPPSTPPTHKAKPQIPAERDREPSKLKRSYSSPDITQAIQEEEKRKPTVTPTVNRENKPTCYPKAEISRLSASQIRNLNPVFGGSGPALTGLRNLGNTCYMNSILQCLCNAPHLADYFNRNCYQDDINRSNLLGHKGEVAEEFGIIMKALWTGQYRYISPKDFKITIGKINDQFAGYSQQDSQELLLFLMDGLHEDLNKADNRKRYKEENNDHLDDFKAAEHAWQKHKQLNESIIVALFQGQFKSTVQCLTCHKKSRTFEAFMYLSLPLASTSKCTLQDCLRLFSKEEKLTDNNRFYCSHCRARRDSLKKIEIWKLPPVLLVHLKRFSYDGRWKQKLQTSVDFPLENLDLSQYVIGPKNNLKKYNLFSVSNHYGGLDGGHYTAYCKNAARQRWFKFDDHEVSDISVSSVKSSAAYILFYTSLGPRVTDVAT

Structure (SMILES)	IC50
O=C(NCc1ccccc1)Nc1cccc2ccccc12	> 40 µM (inactive)
CCOc1ccc2[nH]c(=O)c(-c3nc4ccc(C)cn4c3NCc3ccccc3)cc2c1	> 40 µM (inactive)
CCc1ccc(S(=O)(=O)Nc2ccc(-c3nnc(-c4ccccc4)o3)cc2)cc1	> 40 µM (inactive)
CC(c1ccccc1)N1CC(O)=C(c2nc3ccccc3s2)C1=N (stereo not drawn)	> 40 µM (inactive)
Cc1nc(SCC(=O)NC(C)c2ccccc2)c2oc3ccccc3c2n1 (stereo not drawn)	> 40 µM (inactive)
Cc1ccc(-c2nc3c(c(SCC(=O)c4ccccc4)n2)COC(C)(C)C3)cc1	> 40 µM (inactive)
CN(C)[C@@H]1C(=O)C(C(N)=O)=C(O)[C@@]2(O)C(=O)C3=C(O)c4c(O)cccc4[C@@](C)(O)C3[C@H](O)[C@@H]12 (stereo partly drawn)	0.702 µM
CCc1nnc(-c2ccc3ccn(CC(=O)N4CCN(c5ccccn5)CC4)c3c2)o1	> 40 µM (inactive)
O=C(Cn1nnc2ccccc21)Nc1nc(-c2ccc3c(c2)CCN3C(=O)c2ccccc2F)cs1	> 40 µM (inactive)
Cc1ccc(-c2nn(C(C)(C)C)c3ncnc(NS(=O)(=O)c4ccc(Cl)cc4)c23)cc1	> 40 µM (inactive)
O=S1(=O)CCN(CC2CCCO2)c2c(Oc3ccccc3)nc(F)c(Cl)c21 (stereo not drawn)	> 40 µM (inactive)
COc1ccc(C2/C(=C(\O)c3ccccc3)C(=O)C(=O)N2c2cccc(C(F)(F)F)c2)cc1 (stereo not drawn)	> 40 µM (inactive)
COc1cccc(NC(=O)c2cn(-c3cc(N4CCCC4)ncn3)cn2)c1	> 40 µM (inactive)
N=C1/C(=C/c2cn(Cc3ccccc3)c3ccccc23)C(=O)N=C2SC(C(F)(F)F)=NN12	> 40 µM (inactive)
CCCCCCCCCCCC1=C(O)C(=O)C=C(O)C1=O	4.69 µM
O=C(NCCc1cccnc1)c1ccn(-c2ccc3ccccn23)n1	> 40 µM (inactive)
CC(CCc1ccccc1)NC(=O)Cn1c(=O)c2cccn2c2ccccc21 (stereo not drawn)	> 40 µM (inactive)
Cc1ccc(-n2nc(C(=O)Nc3ccc(C)cn3)c3ncn(C)c(=O)c32)cc1	> 40 µM (inactive)
Cc1ccccc1NC(=O)Cn1ccc2ccn(Cc3ccccc3)c2c1=O	> 40 µM (inactive)
Cc1cc2nc(SCC(=O)c3ccc(O)cc3)[nH]c2cc1C	> 40 µM (inactive)

Structure (SMILES)	IC50
CCOc1ccc(Oc2nc(CN3CCCC3)nc3sc(C)c(C)c23)cc1	> 40 µM (inactive)
Cc1ccccc1NC(=O)Nc1cccc(-c2nnc(-c3ccccc3)o2)c1	> 40 µM (inactive)
COc1ccc2c(c1)c(=O)c(S(=O)(=O)c1ccc(F)cc1)cn2Cc1cccc(F)c1	> 40 µM (inactive)
COc1ccc(C(=O)C(C)OC(=O)c2cccc(S(=O)(=O)Nc3cc([N+](=O)[O-])ccc3OC)c2)c(OC)c1 (stereo not drawn)	> 40 µM (inactive)
Cc1cccc(NC(=O)Nc2ccccc2OCc2cc(=O)n3cccc(C)c3n2)c1	> 40 µM (inactive)
O=C(Cn1c(=O)c2ccccc2n(CC(=O)Nc2cc(Cl)cc(Cl)c2)c1=O)NCc1ccco1	> 40 µM (inactive)
COc1cc(O)cc2c1C(=O)OC(C)CCCCCCC2 (stereo not drawn)	> 40 µM (inactive)
COc1cc(Cn2cnc3c([nH]c4ccc(Br)cc43)c2=O)cc(OC)c1	> 40 µM (inactive)
Cc1ccc2nc(CNc3ccc(F)cc3C)cc(=O)n2c1	> 40 µM (inactive)
O=c1[nH]c(C2CCN(S(=O)(=O)c3ccc(S(=O)(=O)NC4CCCC4)cc3)CC2)nc2c1nnn2Cc1cccc(Cl)c1	> 40 µM (inactive)
Cc1c(C#N)c2ccccc2n1CC(=O)NCc1ccc2c(c1)OCO2	> 40 µM (inactive)
COc1ccccc1CN1CCC(c2cc(=O)[nH]c(-c3cccnc3)n2)CC1	> 40 µM (inactive)
Cn1c(COc2cccc3cccnc23)nnc1SCC(=O)c1ccc(Cl)cc1Cl	> 40 µM (inactive)
Cc1cccc(NC(=O)c2noc3c2CCc2sccc2-3)n1	> 40 µM (inactive)
CCC(C)N1CNc2c(c(=O)[nH]c(=O)n2Cc2ccco2)C1 (stereo not drawn)	> 40 µM (inactive)
COc1ccc([C@H]2Oc3cc(OC)cc(O)c3C(=O)[C@@H]2[C@@H]2C(=O)c3c(O)cc(O)cc3O[C@H]2c2ccc(OC)cc2)cc1	> 40 µM (inactive)
O=C1c2c(O)cccc2C2(Oc3cccc4cccc(c34)O2)C2OC12 (stereo not drawn)	7.76 µM
Cc1noc(-c2cc(=O)n(CC(=O)Nc3ccccc3Cl)c3ccccc23)n1	> 40 µM (inactive)
O=C(COc1ccc(Cl)cc1Cl)Nc1ccccc1-c1nc2ccccc2[nH]1	> 40 µM (inactive)
O=C1CSC(c2ccc(F)cc2)c2c(n(C3CCCCCC3)[nH]c2=O)N1 (stereo not drawn)	31.9 µM

Structure (SMILES)	IC50
CC(C)CC(NC(=O)c1ccc(Cl)cc1Cl)c1nc2ccccc2[nH]1 (stereo not drawn)	> 40 µM (inactive)
N#Cc1cccnc1N1CCN(C(=O)Nc2cccc3ccccc23)CC1	> 40 µM (inactive)
O=C(Cn1c(=O)n(-c2ccc(Cl)cc2)c(=O)c2c3c(sc21)CCCC3)NCC1CCCO1 (stereo not drawn)	> 40 µM (inactive)
Cc1ccc(NC(=O)c2cc(-c3ccccn3)nc3c(Cl)cccc23)nc1	> 40 µM (inactive)
O=C(c1ccc2c(c1)OCO2)[C@@H]1[C@H](C(=O)OC(c2ccccc2)c2ccccc2)N2c3ccccc3C=CC2[C@@]12C(=O)Nc1ccccc12 (stereo partly drawn)	> 40 µM (inactive)
Fc1ccccc1-c1nnc(C2(c3ccc4c(c3)OCO4)CCOCC2)o1	> 40 µM (inactive)
CC(C)=CCC/C(C)=C/COc1ccc(/C=C2\C(=O)N(O)[C@@H](C)C(=O)N2O)cc1	> 40 µM (inactive)
O=C(Nc1ccccc1Cl)c1cc(-c2ccncc2)n[nH]1	> 40 µM (inactive)
C/C=C/C=C/[C@@H]1Cc2cc(O)cc(O)c2O1	20.2 µM
COC(=O)c1cc2c(ccn2-c2ccc(F)cc2)n1CC(=O)NC1CCCCC1	> 40 µM (inactive)
COc1cccc2c1NC(=O)C21CCN(C(=O)Nc2cccc3ccccc23)CC1	> 40 µM (inactive)
Cc1noc(/C=C/Nc2cc(Cl)cc(Cl)c2)c1[N+](=O)[O-]	> 40 µM (inactive)
COc1cccc(C(=O)Nc2nc(-c3nnn(-c4ccc(C)c(F)c4)c3C)ns2)c1	> 40 µM (inactive)
COc1ccc(Cl)cc1C(=O)NNC(=O)c1cc(-c2ccccc2)n[nH]1	> 40 µM (inactive)
O=C(CCn1c(=O)c2ccccc2n(Cc2ccc(F)cc2Cl)c1=O)NCc1ccco1	> 40 µM (inactive)
O=C(c1ccco1)N1CCC2(CC1)CC1(CO2)Nc2ccccc2-n2cccc21 (stereo not drawn)	22.6 µM
COc1cccc2cc(-c3nnc(SCC(=O)c4ccc(F)cc4)n3C)oc12	> 40 µM (inactive)
Cc1cccc(-c2nnn3c2nc(NCC2CCCO2)c2ccccc23)c1 (stereo not drawn)	> 40 µM (inactive)

Second part, the compound after the results:

IC50	Structure (SMILES)
> 40 µM (inactive)	COC(=O)c1ccc2c(=O)n(-c3ccc(C)c(F)c3)c(N3CCC(C(N)=O)CC3)nc2c1
> 40 µM (inactive)	CCCCN1CC(C(=O)Nc2ccc(C(=O)Nc3ccc(C(N)=O)cc3)cc2)CC1=O (stereo not drawn)
> 40 µM (inactive)	Cc1ccc(C(=O)c2cn(CC(=O)Nc3ccccc3)c3ccccc3c2=O)cc1
> 40 µM (inactive)	COc1ccc(CCC(=O)Nc2nnc(C3CC(=O)N(c4ccc(C)cc4)C3)s2)cc1 (stereo not drawn)
> 40 µM (inactive)	NS(=O)(=O)c1ccc(CNC(=O)c2ccc(Cl)c(S(=O)(=O)Nc3cc(Cl)ccc3Cl)c2)cc1
> 40 µM (inactive)	Cc1nc(SCC(=O)Nc2ccc(S(N)(=O)=O)cc2)c2cnn(-c3ccccc3)c2n1
> 40 µM (inactive)	COC(=O)c1ccccc1NC(=O)CSc1nnc(CNc2ccc(F)cc2)n1CC1CCCO1 (stereo not drawn)
> 40 µM (inactive)	CCc1ccc(S(=O)(=O)c2cn(CC(=O)Nc3ccccc3)c3ccccc3c2=O)cc1
> 40 µM (inactive)	Cc1cccc(NC(=O)CNC(=O)c2ccc(-c3noc(C4CCCC4)n3)cc2)c1C
> 40 µM (inactive)	COC(=O)c1ccccc1NC(=O)Cn1c(=O)n(CCCC(=O)NCc2ccco2)c(=O)c2ccccc21
> 40 µM (inactive)	Cc1cc(N2CCN(c3ncccn3)CC2)nc2ccc(NC(=O)c3ccncc3)cc12
> 40 µM (inactive)	COc1ccc(C(=O)Nc2ccccc2C(=O)NC(Cc2ccc(O)cc2)C(=O)NNC(=O)c2ccccc2Cl)cc1 (stereo not drawn)
> 40 µM (inactive)	O=C(COc1ccc(N2CC(C(=O)NCc3ccccc3)CC2=O)cc1)Nc1ccc(F)cc1 (stereo not drawn)
> 40 µM (inactive)	COc1ccc(C(=O)Nc2ccccc2C(=O)NC(Cc2ccc(O)cc2)C(=O)NNC(=O)Cc2ccc(OC)c(OC)c2)cc1 (stereo not drawn)
> 40 µM (inactive)	COc1ccccc1Nc1ncc(C(=O)NCCc2ccc(Cl)cc2)c2ccccc12
> 40 µM (inactive)	CCC(=O)Nc1nc2cc(NC(=O)Nc3ccc(C)cc3)ccc2s1
> 40 µM (inactive)	Cc1ccc(NC(=O)c2cc(-c3cccnc3)n[nH]2)cc1F
> 40 µM (inactive)	O=C(NC1CCCC1)c1ccc(Cn2c(=O)c3ccccc3n(Cc3cc(=O)n4ccccc4n3)c2=O)cc1
29.2 µM	COc1ccc(Nc2nnc(Cc3ccc(Cl)cc3)c(=O)[nH]2)cc1
> 40 µM (inactive)	CCc1ccc([C@@H]2c3c(C)nn(C)c3NC(=O)[C@H]2NC(=O)c2ccc(OC)c(OC)c2)cc1
> 40 µM (inactive)	COc1ccc(S(=O)(=O)NC2CC(=O)N(c3ccc(Cl)cc3)C2)cc1 (stereo not drawn)
> 40 µM (inactive)	Cc1ccc(CNC(=O)CCCn2c(=O)c3sccc3n(CC(=O)OCc3ccccc3)c2=O)cc1
> 40 µM (inactive)	CN(CC(=O)Nc1ccc(Cl)cc1)c1cnn(-c2nc3ccccc3[nH]2)c(=O)c1Cl
> 40 µM (inactive)	CCn1c(CNC(=O)c2cccc(C)c2)nnc1SCC(=O)N1CCc2ccccc21
> 40 µM (inactive)	CCc1ccc(NC(=O)c2cc(C(F)(F)F)n(C)n2)cc1
> 40 µM (inactive)	CSc1cccc(C(=O)Nc2ccc(-c3nc4ccccc4[nH]3)cc2)c1
> 40 µM (inactive)	CCCc1ccc(C(=O)[C@@H]2[C@@H](C(=O)c3cccs3)N3c4ccc(C)cc4C(C)=C[C@@H]3[C@@]23C(=O)Nc2ccccc23)cc1
> 40 µM (inactive)	COc1cccc(C(=O)Nc2ccc(SC(C(=O)Nc3ccccc3)c3ccccc3)cc2)c1 (stereo not drawn)
> 40 µM (inactive)	O=C(COc1ccc(N2CC(C(=O)NCc3ccc4c(c3)OCO4)CC2=O)cc1)Nc1ccc(Cl)cc1 (stereo not drawn)
> 40 µM (inactive)	O=C(Cn1c(=O)c2sccc2n(Cc2ccc([N+](=O)[O-])cc2)c1=O)NCCc1ccccc1
